Tests used:
Format in all cases: cell-based
HeLa (ovarian cancer) = test: MTT antiproliferative assay, HeLa; settings: Homo sapiens, 48 or 72 h, read-out: inhibition of cell growth, HELA
Method: (§1) The antiproliferative activity of a test compound was determined in cell lines: MDA-MB-231 (breast cancer), HepG2 (liver cancer), SW620 (colon cancer), A375 (malignant melanoma), A431 (epidermoid carcinoma), A549 (lung adenocarcinoma), and HeLa ([…]). MDA-MB-231, HepG2, SW480, SW620, A375, and A431 cells were cultured in Dulbecco's modified Eagle's medium (DMEM) containing 10% fetal bovine serum (FBS). HeLa cells were cultured in MEM/EBSS (MEM) containing 10% FBS. A549 cells were maintained in Kaighn's modification of Ham's F-12 medium containing 10% FBS. The colorimetric MTT (3-(4,5-dimethylthiazol-2-yl)-2,5-diphenyltetrazolium bromide) assay was used to measure the cell viability of different cells following treatment with the test compound.
(§2) Briefly cells were seeded in a 96 well plate at a density of 2,000-5,000 cells/well. Following attachment, the cells were treated with the test compound in media at various concentrations ranging from 0.137 to 100 μM or at a single concentration of 10 μM. After the cells were incubated at 37° C. for 48 or 72 h, MTT (20 μL, 5 mg/mL in PBS) was added to each well and the cells were incubated for another 4 h at 37° C. The supernatant was removed carefully and 150 μL of DMSO was added to each well to dissolve the MTT formazan crystals. The plate was shaken for 15-20 min and the absorbance value of each well was determined using a multi-well plate reader at 490 nm. The wells treated with DMSO were taken as a vehicle control. Data were also obtained similarly for all the replicates and the percentage viability was determined with respect to the DMSO-treated cells. The results are summarized in Table 1 below, wherein A represents no less than 80% inhibition of cell growth at 10 μM; B represents no less than 50% but less than 80% inhibition of cell growth at 10 μM; C represents no less than 30% but less than 50% inhibition of cell growth at 10 μM; and D represents less than 30% inhibition of cell growth at 10 μM.

HepG2 (liver cancer) = test: MTT antiproliferative assay, HepG2; settings: Homo sapiens, HepG2, 10 μM, 48 or 72 h, read-out: inhibition of cell growth, HepG2
Method: as §1, §2

SW620 (colon cancer) = test: MTT antiproliferative assay, SW620; settings: Homo sapiens, SW-620, SW620, 10 μM, 48 or 72 h, read-out: inhibition of cell growth, SW620
Method: as §1, §2

[1] = test system: A549 (lung adenocarcinoma); test: MTT antiproliferative assay, A549; settings: Homo sapiens, A549, 10 μM, 48 or 72 h, read-out: inhibition of cell growth, A549
Method: as §1, §2

[2] = test system: A375 (malignant melanoma); test: MTT antiproliferative assay, A375; settings: Homo sapiens, A-375, A375, 10 μM, 48 or 72 h, read-out: inhibition of cell growth, A375
Method: as §1, §2

[3] = test system: A431 (epidermoid carcinoma); test: MTT antiproliferative assay, A431; settings: Homo sapiens, A-431, A431, 10 μM, 48 or 72 h, read-out: inhibition of cell growth, A431
Method: as §1, §2

[4] = test system: MDA-MB-231 (breast cancer); test: MTT antiproliferative assay, MDA-MB-231; settings: Homo sapiens, MDA-MB-231, 10 μM, 48 or 72 h, read-out: inhibition of cell growth, MDA-MB-231
Method: as §1, §2

CO[C@@]1(C)C2=CC=C3[C@@](C)(CC[C@@]4(C)[C@@H]5C[C@](C)(C(=O)O)CC[C@]5(C)CC[C@]34C)C2=CC(=O)/C1=C/C#N [Compound A31, (2R,4aS,6aS,9S,10E,12bR,14aS,14bR)-10-(cyanomethylidene)-9-methoxy-2,4a,6a,9,12b,14a-hexamethyl-11-oxo-1,2,3,4,4a,5,6,6a,9,10,11,12b,13,14,14a,14b-hexadecahydropicene-2-carboxylic acid]
inhibition at 10 µM (HeLa (ovarian cancer)): ≥ 80% | inhibition at 10 µM (HepG2 (liver cancer)): 50 to 80% | inhibition at 10 µM (SW620 (colon cancer)): ≥ 80% | inhibition at 10 µM [1]: 50 to 80% | inhibition at 10 µM [2]: 50 to 80% | inhibition at 10 µM [3]: 50 to 80% | inhibition at 10 µM [4]: ≥ 80%

CO[C@]1(C)C(=O)C(=O)C=C2C1=CC=C1[C@@]2(C)CC[C@@]2(C)[C@@H]3C[C@](C)(C(=O)F)CC[C@]3(C)CC[C@]12C [Compound A8, (2R,4aS,6aS,9S,12bR,14aS,14bR)-9-methoxy-2,4a,6a,9,12b,14a-hexamethyl-10,11-dioxo-1,2,3,4,4a,5,6,6a,9,10,11,12b,13,14,14a,14b-hexadecahydropicene-2-carbonyl fluoride]
inhibition at 10 µM (HeLa (ovarian cancer)): 50 to 80% | inhibition at 10 µM (HepG2 (liver cancer)): ≥ 80% | inhibition at 10 µM (SW620 (colon cancer)): 50 to 80% | inhibition at 10 µM [1]: 50 to 80% | inhibition at 10 µM [2]: 30 to 50% | inhibition at 10 µM [3]: ≥ 80% | inhibition at 10 µM [4]: 50 to 80%

CO[C@@]1(C)C2=CC=C3[C@@](C)(CC[C@@]4(C)[C@@H]5C[C@](C)(C(=O)O)CC[C@]5(C)CC[C@]34C)C2=CC(=O)/C1=C\C#N [Compound A30, (2R,4aS,6aS,9S,10Z,12bR,14aS,14bR)-10-(cyanomethylidene)-9-methoxy-2,4a,6a,9,12b,14a-hexamethyl-11-oxo-1,2,3,4,4a,5,6,6a,9,10,11,12b,13,14,14a,14b-hexadecahydropicene-2-carboxylic acid]
inhibition at 10 µM (HeLa (ovarian cancer)): ≥ 80% | inhibition at 10 µM (HepG2 (liver cancer)): ≥ 80% | inhibition at 10 µM (SW620 (colon cancer)): ≥ 80% | inhibition at 10 µM [1]: 30 to 50% | inhibition at 10 µM [2]: 50 to 80% | inhibition at 10 µM [3]: ≥ 80% | inhibition at 10 µM [4]: ≥ 80%

CNC(=O)[C@]1(C)CC[C@]2(C)CC[C@]3(C)C4=CC=C5C(=CC(=O)[C@H](O)[C@@]5(C)OC)[C@]4(C)CC[C@@]3(C)[C@@H]2C1 [Compound A17, (2R,4aS,6aS,9S,10R,12bR,14aS,14bR)-10-hydroxy-9-methoxy-N,2,4a,6a,9,12b,14a-heptamethyl-11-oxo-1,2,3,4,4a,5,6,6a,9,10,11,12b,13,14,14a,14b-hexadecahydropicene-2-carboxamide]
inhibition at 10 µM (HeLa (ovarian cancer)): 50 to 80% | inhibition at 10 µM (HepG2 (liver cancer)): ≥ 80% | inhibition at 10 µM (SW620 (colon cancer)): ≥ 80% | inhibition at 10 µM [1]: 30 to 50% | inhibition at 10 µM [2]: 50 to 80% | inhibition at 10 µM [3]: ≥ 80% | inhibition at 10 µM [4]: ≥ 80%

CO[C@@]1(C)C2=CC=C3[C@@](C)(CC[C@@]4(C)[C@@H]5C[C@](C)(C(=O)O)CC[C@]5(C)CC[C@]34C)C2=CC(=O)C1=NNC(C)=O [Compound A51, (2R,4aS,6aS,9S,12bR,14aS,14bR)-10-(acetamidoimino)-9-methoxy-2,4a,6a,9,12b,14a-hexamethyl-11-oxo-1,2,3,4,4a,5,6,6a,9,10,11,12b,13,14,14a,14b-hexadecahydropicene-2-carboxylic acid]
inhibition at 10 µM (HeLa (ovarian cancer)): < 30% | inhibition at 10 µM (HepG2 (liver cancer)): < 30% | inhibition at 10 µM (SW620 (colon cancer)): < 30% | inhibition at 10 µM [1]: < 30% | inhibition at 10 µM [2]: < 30% | inhibition at 10 µM [3]: < 30% | inhibition at 10 µM [4]: < 30%

CC12OCCOC1(O)C(=O)C=C1C2=CC=C2[C@@]1(C)CC[C@@]1(C)[C@@H]3C[C@](C)(C(=O)O)CC[C@]3(C)CC[C@]21C (stereo partly drawn) [Compound A43, (6bS,8aS,11R,12aR,12bS,14aR)-16a-hydroxy-4a,6b,8a,11,12b,14a-hexamethyl-16-oxo-2,3,4a,6b,7,8,8a,9,10,11,12,12a,12b,13,14,14a,16,16a-octadecahydropiceno[3,4-b][1,4]dioxine-11-carboxylic acid]
inhibition at 10 µM (HeLa (ovarian cancer)): < 30% | inhibition at 10 µM (HepG2 (liver cancer)): < 30% | inhibition at 10 µM (SW620 (colon cancer)): < 30% | inhibition at 10 µM [1]: < 30% | inhibition at 10 µM [2]: < 30% | inhibition at 10 µM [3]: < 30% | inhibition at 10 µM [4]: < 30%

CO[C@]1(C)C(=O)C(=O)C=C2C1=CC=C1[C@@]2(C)CC[C@@]2(C)[C@@H]3C[C@](C)(C(=O)NCCO)CC[C@]3(C)CC[C@]12C [Compound A44, (2R,4aS,6aS,9S,12bR,14aS,14bR)—N-(2-hydroxyethyl)-9-methoxy-2,4a,6a,9,12b,14a-hexamethyl-10,11-dioxo-1,2,3,4,4a,5,6,6a,9,10,11,12b,13,14,14a,14b-hexadecahydropicene-2-carboxamide]
inhibition at 10 µM (HeLa (ovarian cancer)): ≥ 80% | inhibition at 10 µM (HepG2 (liver cancer)): ≥ 80% | inhibition at 10 µM (SW620 (colon cancer)): 50 to 80% | inhibition at 10 µM [1]: ≥ 80% | inhibition at 10 µM [2]: 30 to 50% | inhibition at 10 µM [3]: ≥ 80% | inhibition at 10 µM [4]: ≥ 80%

[2H]C([2H])([2H])O[C@]1(C)C(=O)C(=O)C=C2C1=CC=C1[C@@]2(C)CC[C@@]2(C)[C@@H]3C[C@](C)(C(=O)O)CC[C@]3(C)CC[C@]12C [Compound A2, (2R,4aS,6aS,9S,12bR,14aS,14bR)-9-(methoxy-d3)-2,4a,6a,9,12b,14a-hexamethyl-10,11-dioxo-1,2,3,4,4a,5,6,6a,9,10,11,12b,13,14,14a,14b-hexadecahydropicene-2-carboxylic acid]
inhibition at 10 µM (HeLa (ovarian cancer)): ≥ 80% | inhibition at 10 µM (HepG2 (liver cancer)): 50 to 80% | inhibition at 10 µM (SW620 (colon cancer)): 30 to 50% | inhibition at 10 µM [1]: 30 to 50% | inhibition at 10 µM [2]: 30 to 50% | inhibition at 10 µM [3]: 50 to 80% | inhibition at 10 µM [4]: 50 to 80%

COC(=O)[C@]1(C)CC[C@]2(C)CC[C@]3(C)C4=CC=C5C(=CC(=O)C(=O)C5(C)c5c[nH]c6ccccc56)[C@]4(C)CC[C@@]3(C)[C@@H]2C1 (stereo partly drawn) [Compound A4, methyl (2R,4aS,6aS,12bR,14aS,14bR)-9-(1H-indol-3-yl)-2,4a,6a,9,12b,14a-hexamethyl-10,11-dioxo-1,2,3,4,4a,5,6,6a,9,10,11,12b,13,14,14a,14b-hexadecahydropicene-2-carboxylate]
inhibition at 10 µM (HeLa (ovarian cancer)): ≥ 80% | inhibition at 10 µM (HepG2 (liver cancer)): 50 to 80% | inhibition at 10 µM (SW620 (colon cancer)): 50 to 80% | inhibition at 10 µM [1]: 50 to 80% | inhibition at 10 µM [2]: 50 to 80% | inhibition at 10 µM [3]: ≥ 80% | inhibition at 10 µM [4]: 30 to 50%

COC(=O)[C@]1(C)CC[C@]2(C)CC[C@]3(C)C4=CC=C5C(=CC(=O)C(O)C5(C)O)[C@]4(C)CC[C@@]3(C)[C@@H]2C1 (stereo partly drawn) [Compound A35, methyl (2R,4aS,6aS,12bR,14aS,14bR)-9,10-dihydroxy-2,4a,6a,9,12b,14a-hexamethyl-11-oxo-1,2,3,4,4a,5,6,6a,9,10,11,12b,13,14,14a,14b-hexadecahydropicene-2-carboxylate]
inhibition at 10 µM (HeLa (ovarian cancer)): ≥ 80% | inhibition at 10 µM (HepG2 (liver cancer)): ≥ 80% | inhibition at 10 µM (SW620 (colon cancer)): ≥ 80% | inhibition at 10 µM [1]: ≥ 80% | inhibition at 10 µM [2]: 50 to 80% | inhibition at 10 µM [3]: ≥ 80% | inhibition at 10 µM [4]: ≥ 80%

CO[C@@]1(C)C2=CC=C3[C@@](C)(CC[C@@]4(C)[C@@H]5C[C@](C)(C(N)=O)CC[C@]5(C)CC[C@]34C)C2=CC(=O)[C@@H]1O [Compound A55, (2R,4aS,6aS,9S,10R,12bR,14aS,14bR)-10-Hydroxy-9-methoxy-2,4a,6a,9,12b,14a-hexamethyl-11-oxo-1,2,3,4,4a,5,6,6a,9,10,11,12b,13,14,14a,14b-hexadecahydropicene-2-carboxamide]
inhibition at 10 µM (HeLa (ovarian cancer)): 50 to 80% | inhibition at 10 µM (HepG2 (liver cancer)): ≥ 80% | inhibition at 10 µM (SW620 (colon cancer)): ≥ 80% | inhibition at 10 µM [1]: 50 to 80% | inhibition at 10 µM [2]: 30 to 50% | inhibition at 10 µM [3]: ≥ 80% | inhibition at 10 µM [4]: 50 to 80%

CCNC(=O)[C@]1(C)CC[C@]2(C)CC[C@]3(C)C4=CC=C5C(=CC(=O)C(=O)[C@@]5(C)OC)[C@]4(C)CC[C@@]3(C)[C@@H]2C1 [Compound A10, (2R,4aS,6aS,9S,12bR,14aS,14bR)—N-ethyl-9-methoxy-2,4a,6a,9,12b,14a-hexamethyl-10,11-dioxo-1,2,3,4,4a,5,6,6a,9,10,11,12b,13,14,14a,14b-hexadecahydropicene-2-carboxamide]
inhibition at 10 µM (HeLa (ovarian cancer)): ≥ 80% | inhibition at 10 µM (HepG2 (liver cancer)): 50 to 80% | inhibition at 10 µM (SW620 (colon cancer)): 50 to 80% | inhibition at 10 µM [1]: 30 to 50% | inhibition at 10 µM [2]: 30 to 50% | inhibition at 10 µM [3]: 50 to 80% | inhibition at 10 µM [4]: ≥ 80%

From patent US12570687B2, “Triterpenoid compounds, pharmaceutical compositions thereof, and their use for treating a nuclear receptor subfamily 4 group a member 1-mediated disease” (NUCMITO PHARMACEUTICALS COMPANY LIMITED, priority 2019, dated 2026)
